Tested on: 422866-222-R5-J1-PDC complex spheroids viability
Test: Anticancer human tumor 422866-222-R5-J1-PDC patient-derived pancreatic adenocarcinoma cell line growth inhibition [RAS]
Details: for IC50: curve of first compound; for viability, T/C: stronger effect = lower value
Text: RAS pathway inhibitors in Combinations in Complex Spheroids
A high-throughput screen of multi-cell type tumor spheroids was designed to identify active combinations of RAS pathway inhibitors and targeted small molecules. Complex spheroids include a stromal component modeled by human endothelial cells (HUVEC) and fibroblasts modeled by human mesenchymal stem cells (MSCs). The concentration ranges selected for each drug and investigational agent were based upon clinically achievable concentrations if the clinical Cmax of the agent was known.
Compounds. The drugs and investigational agents: abemaciclib (NSC768073), cobimetinib (NSC768068), divarasib (GDC6063, NSC841802), docetaxel (NSC628503), GDC-1971 (RLY-1971, NSC841576), gemcitabine (NSC613327), inavolisib (NSC800729), ipatasertib (NSC767898), KB-0742 (NSC834161), MRTX-1133 (NSC836407), osimertinib (NSC779217), RMC-4630 (NSC839698), RMC-6236 (NSC851965), RMC-6291 (NSC852671), Ro-3306 (NSC812927), sapanisertib (NSC764658), SN-38 (NSC673596), staurosporine (NSC755774), SY5609 (NSC837396), and tovorafenib (DAY101, NSC766906), were obtained from the National Cancer Institute (NCI) Developmental Therapeutics Program Chemical Repository. The FDA-approved anticancer drug set is available from the NCI Developmental Therapeutics Program. […] The stock solutions were prepared in dimethyl sulfoxide (DMSO, Sigma-Aldrich, St. Louis, MO, cat. D2650) at 800-fold the tested concentration and stored at -70 degrees C prior to their use. All drugs and investigational agents were tested over a range starting from a high concentration at or near the clinical Cmax and decreasing in half-log increments. If the clinical Cmax for an agent had not been determined, the highest concentration tested was 10 microM.
Cell Culture. All cells were maintained in an incubator at 37 degrees C and 5% CO2 with 95% humidity. The PDC lines were cultured according to standard operating procedures established by the NCI PDMR. All PDCs were thawed and cultured in Matrigel-coated flasks prepared with a working solution of 1X Ham's F-12 nutrient mix, without supplementation (Invitrogen, Waltham, MA, cat. 11765054), 100 U/mL penicillin-streptomycin (Invitrogen, cat. 15140122), and 2.5% Matrigel (Corning Inc., Corning, NY, cat. 354248) for the first three passages. The 362531-283-R-J2-PDC and 782815-120-R-J1-PDC lines were cultured in 6C/Colon 1B media, which includes advanced DMEM/F-12 (Thermo Fisher Scientific, cat. 12634028), 10 mM HEPES (Thermo Fisher Scientific, cat. 15630080), 1X GlutaMAX supplement (Thermo Fisher Scientific, cat. 35050061), 0.1 mg/mL primocin (InvivoGen, San Diego, CA, cat. ant-pm-2), 10% defined fetal bovine serum, heat inactivated (HyClone Laboratories Inc., Logan, UT, cat. SH30070.03HI), 50% L-WRN conditioned media (ATCC, cat. CRL-3276), 1.25 mM N-Acetyl-L-cysteine (Sigma-Aldrich, cat. A9165), 10 mM nicotinamide (Sigma-Aldrich, cat. N0636), 1X B-27 supplement (Thermo Fisher Scientific, cat. 17504044), 1X N-2 supplement (Thermo Fisher Scientific, cat. 17502048), 50 ng/mL human EGF (Thermo Fisher Scientific, cat. PHG0311), and 10 microM Y-27632 dihydrochloride (Tocris Bioscience, cat. 1254). The K12877-001-R-J1-PDC line was cultured in 6I media, which includes all 6C/Colon 1B media plus 10 ng/mL human FGF-10 (PeproTech, cat. 100-26), 1 ng/mL human FGF-2 (PeproTech, cat. 100-18B), 1 µM prostaglandin E2 (Tocris Bioscience, cat. 2296), […] hydrocortisone (Sigma-Aldrich, cat. H4001), and […] bovine insulin (Sigma-Aldrich, cat. I6634). The K86415-001-R-J1-PDC line was cultured in 6D media, which includes all 6C/Colon 1B media components minus the L-WRN conditioned media. The 485176-168-R4-J1-PDC was cultured in PANC media, which includes all 6C/Colon 1B media plus 100 ng/mL human FGF-10 (PeproTech, cat. 100-26), 500 nM SB-431542 (Selleckchem, cat. S1067), and 10 nM gastrin (Tocris Bioscience, cat. 3006). […]
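Note: spheroids exposed to compounds for 7 days.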
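Throughout, for viability, T/C: 100% = DMSO vehicle control viability.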

CCN1CCN(Cc2ccc(Nc3ncc(F)c(-c4cc(F)c5nc(C)n(C(C)C)c5c4)n3)nc2)CC1 + C=CC(=O)N1CCN(c2nc(OCC3CCCN3C)nc3c(F)c(-c4nc(N)cc(C)c4C(F)(F)F)c(Cl)cc23)C(C)C1
IC50 (second compound 0.00316 µM): < 3.16 nM
IC50 (second compound 0.01 µM): < 3.16 nM
IC50 (second compound 0.0316 µM): < 3.16 nM
IC50 (second compound 0.1 µM): < 3.16 nM
IC50 (second compound 0.316 µM): < 3.16 nM
IC50 (second compound 1 µM): < 3.16 nM
viability, T/C (second compound 0.00316 µM, first compound 0.00316 µM): 25.2%
viability, T/C (second compound 0.00316 µM, first compound 0.01 µM): 32.4%
viability, T/C (second compound 0.00316 µM, first compound 0.0316 µM): 26.4%
viability, T/C (second compound 0.00316 µM, first compound 0.1 µM): 21%
viability, T/C (second compound 0.00316 µM, first compound 0.316 µM): 31.8%
viability, T/C (second compound 0.00316 µM, first compound 1 µM): 36.3%
viability, T/C (second compound 0.01 µM, first compound 0.00316 µM): 25.3%
viability, T/C (second compound 0.01 µM, first compound 0.01 µM): 24.6%
viability, T/C (second compound 0.01 µM, first compound 0.0316 µM): 24.8%
viability, T/C (second compound 0.01 µM, first compound 0.1 µM): 23.3%
viability, T/C (second compound 0.01 µM, first compound 0.316 µM): 25.8%
viability, T/C (second compound 0.01 µM, first compound 1 µM): 30.3%
viability, T/C (second compound 0.0316 µM, first compound 0.00316 µM): 22.7%
viability, T/C (second compound 0.0316 µM, first compound 0.01 µM): 22.1%
viability, T/C (second compound 0.0316 µM, first compound 0.0316 µM): 22.5%
viability, T/C (second compound 0.0316 µM, first compound 0.1 µM): 18.5%
viability, T/C (second compound 0.0316 µM, first compound 0.316 µM): 27.8%
viability, T/C (second compound 0.0316 µM, first compound 1 µM): 30.5%
viability, T/C (second compound 0.1 µM, first compound 0.00316 µM): 24.4%
viability, T/C (second compound 0.1 µM, first compound 0.01 µM): 22.2%
viability, T/C (second compound 0.1 µM, first compound 0.0316 µM): 21%
viability, T/C (second compound 0.1 µM, first compound 0.1 µM): 20.7%
viability, T/C (second compound 0.1 µM, first compound 0.316 µM): 24.5%
viability, T/C (second compound 0.1 µM, first compound 1 µM): 31%
viability, T/C (second compound 0.316 µM, first compound 0.00316 µM): 18.9%
viability, T/C (second compound 0.316 µM, first compound 0.01 µM): 20.2%
viability, T/C (second compound 0.316 µM, first compound 0.0316 µM): 20.3%
viability, T/C (second compound 0.316 µM, first compound 0.1 µM): 21.7%
viability, T/C (second compound 0.316 µM, first compound 0.316 µM): 27.3%
viability, T/C (second compound 0.316 µM, first compound 1 µM): 30.4%
viability, T/C (second compound 1 µM, first compound 0.00316 µM): 22.7%
viability, T/C (second compound 1 µM, first compound 0.01 µM): 20.9%
viability, T/C (second compound 1 µM, first compound 0.0316 µM): 23.2%
viability, T/C (second compound 1 µM, first compound 0.1 µM): 21.2%
viability, T/C (second compound 1 µM, first compound 0.316 µM): 24.9%
viability, T/C (second compound 1 µM, first compound 1 µM): 37.9%
